From patent publication US12297189B2, “Crystalline forms of a 4-pyrimidinesulfamide derivative aprocitentan” (IDORSIA PHARMACEUTICALS LTD, priority 2017, dated 2025)
Values belong to the molecule of their own block, whether it stands above or below them.

Columns and labels:
[1] = system: subjects having essential hypertension; conditions: phase 2 trial, cited from earlier work
[2] = system: conscious, male spontaneaously hypertensive rats; experiment: Acute effects on MAP and HR by telemetry in spontaneously hypertensive rats; assay type: in vivo, rat; conditions: SHRs, doses 1-300 mg/kg
Description: The acute effects of COMPOUND on blood pressure, in particular on mean arterial blood pressure (hereafter “MAP”), and heart rate (hereafter “HR”) were evaluated by means of telemetry in conscious, male spontancaously hypertensive rats (hereafter “SHRs”—see details about this model in Atanur et al., Genome Res. (2010), 20, 791-803). Groups of 4-6 SHRs were used for the vehicle (7.5% gelatin aquous solution) and each dose of COMPOUND tested (1, 3, 10, 30, 100, and 300 mg/kg). Effects of COMPOUND on HR and MAP were calculated for individual animals relative to the 24 h period before administering. The results obtained regarding MAP (maximal MAP decrease observed over 6 consecutive hours) are summarised in FIG. 11 (data are presented as mean±standard error of the mean). […] In contrast to MAP, HR was not affected.

male Wistar rats = experiment: Effect on fluid retention (haematocrit) in Wistar rats; assay type: in vivo, rat; conditions: single oral dose 1-30 mg/kg, 24 hours after administration
Description: A decrease in haematocrit (Hct) or haemoglobin occurs secondary to an increase in plasma volume and can be used as a marker of fluid retention. A single oral dose of aprocitentan (1-30 mg/kg) or vehicle (gelatin) was administered by gavage to male Wistar rats. Twenty-four hours after administration, sublingual blood was sampled under isoflurane-induced anesthesia. Haematocrit was measured using a hematology analyser.

[3] = system: conscious, male hypertensive deoxycorticosterone acetate salt rats; experiment: Chronic effects of repeated oral administration in DOCA-salt rats; assay type: in vivo, rat; conditions: oral 1, 10 and 100 mg/kg/day for 4 weeks
Description: The chronic effects of repeated administrations of doses of 1, 10 and 100 mg/kg/day of COMPOUND, in particular mean arterial blood pressure (hereafter “MAP”), and heart rate (hereafter “HR”), were evaluated in conscious, male hypertensive deoxycorticosterone acetate salt rats (hereafter “DOCA-salt rats”—see details about this model in Gavras et al., Circ. Res. (1975), 36, 300-309). In the DOCA-salt rats, hypertension is induced by the combination of unilateral nephrectomy, implantation of pellets of the mineralocorticoid analog DOCA, and provision of 1% sodium chloride in drinking water. The results of the DOCA-salt rats treated with COMPOUND were compared to those obtained for Wistar rats or for DOCA-salt rats that received only the vehicle (4% gelatin aquous solution). • a) The results obtained regarding MAP are summarised in FIG. 16 wherein each data point is presented as a 24-hour mean. 6 rats were used for each of the 5 test groups (Wistar control rats [bottom line], DOCA-salt control rats [2nd line from top at day 28] and DOCA-salt rats receiving repeated administrations of doses of 1 mg/kg/day [top line at day 28], 10 mg/kg/day [3rd line from top at day 28] and 100 mg/kg/day [4th line from top at day 28] of COMPOUND).

[4] = system: conscious, male hypertensive deoxycorticosterone acetate salt rats; experiment: Acute effects on MAP and HR by telemetry in DOCA-salt rats; assay type: in vivo, rat; conditions: doses 0.3-300 mg/kg
Description: The acute effects of COMPOUND on blood pressure, in particular on mean arterial blood pressure (hereafter “MAP”), and heart rate (hereafter “HR”) were evaluated by means of telemetry in conscious, male hypertensive deoxycorticosterone acetate salt rats (hereafter “DOCA-salt rats”—see details about this model in Gavras et al., Circ. Res. (1975), 36, 300-309). In the DOCA-salt rats, hypertension is induced by the combination of unilateral nephrectomy, implantation of pellets of the mineralocorticoid analog DOCA, and provision of 1% sodium chloride in drinking water. Groups of 6-11 DOCA-salt rats were used for the vehicle (7.5% gelatin aquous solution) and each dose of COMPOUND tested (0.3, 1, 3, 10, 30, 100, and 300 mg/kg). Effects of COMPOUND on HR and MAP were calculated for individual animals relative to the 24 h period before administering. The results obtained regarding MAP (maximal MAP decrease observed over 6 consecutive hours) are summarised in FIG. 10 (data are presented as mean±standard error of the mean). […] In contrast to MAP, HR was not affected.

[5] = system: conscious, male hypertensive Dahl salt-sensitive rats; experiment: Acute effects on MAP and HR by telemetry in Dahl salt-sensitive rats; assay type: in vivo, rat; conditions: Dahl-S rats, doses 0.3-300 mg/kg
Description: The acute effects of COMPOUND on blood pressure, in particular on mean arterial blood pressure (hereafter “MAP”), and heart rate (hereafter “HR”) were evaluated by means of telemetry in conscious, male hypertensive Dahl salt-sensitive rats (hereafter “Dahl-S rats”-see details about this model in Rapp, Hypertension (1982), 4, 753-763). Elevated blood pressure is induced in Dahl-S rats by providing 1% sodium chloride in drinking water. Groups of 6-7 Dahl-S rats were used for the vehicle (7.5% gelatin aquous solution) and each dose of COMPOUND tested (0.3, 1, 3, 10, 30, 100, and 300 mg/kg). Effects of COMPOUND on HR and MAP were calculated for individual animals relative to the 24 h period before administering. The results obtained regarding MAP (maximal MAP decrease observed over 6 consecutive hours) are summarised in FIG. 9 (data are presented as mean±standard error of the mean). […] In contrast to MAP, HR was not affected.

[6] = Hygroscopicity by gravimetric vapour sorption (GVS); assay type: physicochemical; conditions: 25° C., mass change between 40% and 80% RH, first adsorption scan
Description: Measurements are performed on a multi sample instrument SPS-100n (Projekt Messtechnik, Ulm, Germany) operated in stepping mode at 25° C. The sample is allowed to equilibrate at 40% RH before starting a pre-defined humidity program (40-0-95-0-95-40% RH, steps of 5% ΔRH and with a maximal equilibration time of 24 hours per step are applied. About 20 to 30 mg of each sample is used.
The mass change between 40% relative humidity and 80% relative humidity in the first adsorption scan is considered.
Form A e.g. as obtained from Example 1 is considered to be non-hygroscopic as determined by gravimetric vapor sorption (GVS) (see FIG. 19).

[7] = Storage at room temperature of crystalline forms (XRPD, HPLC control); assay type: physicochemical; conditions: 20-25° C.
Description: All XRPD patterns for the solid forms described herein have been obtained as described hereafter. X-ray powder diffraction patterns were collected on a Bruker D8 Advance X-ray diffractometer equipped with a Lynxeye detector operated with CuKα-radiation in reflection mode (coupled two Theta/Theta). Typically, the X-ray tube was run at of 40 kV/40 mA. A step size of 0.02° (2θ) and a step time of 76.8 see over a scanning range of 3-500 in 2θ were applied. The divergence slit was set to fixed 0.3. Powders were slightly pressed into a silicon single crystal sample holder with depth of 0.5 mm and samples were rotated in their own plane during the measurement. Diffraction data are reported using combined Cu Kα1 and Kα2 radiation, without Kα2 stripping. The accuracy of the 2θ values as provided herein is in the range of +/−0.1-0.2° as it is generally the case for conventionally recorded X-ray powder diffraction patterns. A sample of Form A crystals of the COMPOUND (as obtained according to Example 1 above) has been stored at a temperature of 20-25° C. at 92% relative humidity for 2 months. […] The same result was obtained after storage for 8 weeks under the above coditions. […] A sample of Form B crystals of a dichloromethane solvate of the COMPOUND (as obtained according to Example 2 above) has been stored in a closed vial (20 mg of Form B crystals being placed in a closed 4 mL vial) at a temperature of 20-25° C. for about 3 weeks. […] A sample of Form K crystals of a dimethylsulfoxide solvate of the COMPOUND (as obtained according to Example 7 above) has been stored in a closed vial (20 mg of Form K crystals being placed in a closed 4 mL vial) at a temperature of 20-25° C. for about 3 weeks.

patients with diabetes = conditions: cited from earlier work
patients with rHT = conditions: 14 week phase 3 trial; cited from earlier work

Compound: NS(=O)(=O)Nc1ncnc(OCCOc2ncc(Br)cn2)c1-c1ccc(Br)cc1 [Form C, {5-(4-bromo-phenyl)-6-[2-(5-bromo-pyrimidin-2-yloxy)-ethoxy]-pyrimidin-4-yl}-sulfamide]
hygroscopicity (GVS) [6]: slightly hygroscopic (increase in mass is less than 2% and equal to or greater than 0.2% mass/mass)

Compound: COc1ccccc1Oc1c(NS(=O)(=O)c2ccc(C)cn2)nc(-c2ccncc2)nc1OC [avosentan]
treatment effect (reduction of proteinuria) (patients with diabetes): showed significant treatment effect | discontinuation of trial medications due to adverse events (patients with diabetes; predominantly fluid overload and congestive heart failure): significantly increased discontinuation

Compound: COc1cc(OC)nc(O[C@H](C(=O)O)C(OC)(c2ccccc2)c2ccccc2)n1 [darusentan]
withdrawal because of adverse events as compared with placebo (patients with rHT): More patients withdrew

The next lines start with results.

haematocrit (Hct), marker of fluid retention (male Wistar rats): did not impact on haematocrit
Compound: NS(=O)(=O)Nc1ncnc(OCCOc2ncc(Br)cn2)c1-c1ccc(Br)cc1 [COMPOUND, {5-(4-bromo-phenyl)-6-[2-(5-bromo-pyrimidin-2-yloxy)-ethoxy]-pyrimidin-4-yl}-sulfamide]
body weight ([1]; at higher doses): increased body weight at higher doses | cases of peripheral edema ([1]; at higher doses): four | control of blood pressure ([1]; essential hypertension, monotherapy): may result in efficacious control of blood pressure | hemoglobin concentration [1]: dose related decrease | effect on heart rate (HR) [2]: not affected | effect on DOCA-salt-induced increase in MAP [3]: dose-dependently attenuated the DOCA-salt-induced increase in MAP | effect on heart rate (HR) [3]: without changing HR | effect on heart rate (HR) [4]: not affected | effect on heart rate (HR) [5]: not affected

hygroscopicity (GVS) [6]: non-hygroscopic | solid form by X-ray powder diffraction after storage ([7]; 92% relative humidity, 2 months): still consisting only in Form A crystals | degradation by HPLC control (peak area %) after storage ([7]; 92% relative humidity, 8 weeks): no significant degradation
Compound: NS(=O)(=O)Nc1ncnc(OCCOc2ncc(Br)cn2)c1-c1ccc(Br)cc1 [Form A, {5-(4-bromo-phenyl)-6-[2-(5-bromo-pyrimidin-2-yloxy)-ethoxy]-pyrimidin-4-yl}-sulfamide]

solid form by X-ray powder diffraction after storage ([7]; closed vial, about 3 weeks): transformed into Form A crystals
Compound: NS(=O)(=O)Nc1ncnc(OCCOc2ncc(Br)cn2)c1-c1ccc(Br)cc1 [Form B, {5-(4-bromo-phenyl)-6-[2-(5-bromo-pyrimidin-2-yloxy)-ethoxy]-pyrimidin-4-yl}-sulfamide]
